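How tested: cells in 96-well plates exposed to compound for 48 hours at five concentrations. Abbreviation: GI50, concentration required for 50% inhibition of growth. TGI: concentration producing complete growth inhibition.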
Experiments:
Experiment in all cases: NCI anticancer screen, dose series, 48 h
MALME-3M melanoma = tested on: MALME-3M melanoma
M14 melanoma = tested on: M14 melanoma
UACC-257 melanoma = tested on: UACC-257 melanoma
SK-OV-3 ovarian = tested on: SK-OV-3 ovarian
CCRF-CEM leukemia = tested on: CCRF-CEM leukemia
OVCAR-3 ovarian = tested on: OVCAR-3 ovarian
MCF7 breast = tested on: MCF7 breast
SR leukemia = tested on: SR leukemia
HCC-2998 colon = tested on: HCC-2998 colon
SK-MEL-2 melanoma = tested on: SK-MEL-2 melanoma

## CCOC(=O)c1c(-c2ccc(OC)cc2)c(C#N)c2c(C#N)c(N)nn2c1N
MALME-3M melanoma
  GI50: 4.05 µM
  TGI: 82.7 µM
M14 melanoma
  GI50: 3.26 µM
  TGI: 25.9 µM
UACC-257 melanoma
  GI50: 8.18 µM
  TGI: > 100 µM
SK-OV-3 ovarian
  GI50: 3.49 µM
  TGI: 19.1 µM
CCRF-CEM leukemia
  GI50: 2.46 µM
  TGI: > 100 µM
OVCAR-3 ovarian
  GI50: 3.28 µM
  TGI: 14.2 µM
MCF7 breast
  GI50: 3.31 µM
  TGI: > 100 µM
SR leukemia
  GI50: 2.05 µM
  TGI: > 100 µM
HCC-2998 colon
  GI50: 7.64 µM
  TGI: > 100 µM
SK-MEL-2 melanoma
  GI50: 3.35 µM
  TGI: 26.5 µM

## COc1cc(/C=C\c2cc(OC)c(OC)c(OC)c2)cc(N/C=C\C(=O)c2cc(OC)c(OC)c(OC)c2)c1OC
MALME-3M melanoma
  GI50: 2.91 µM
  TGI: > 100 µM
UACC-257 melanoma
  GI50: > 100 µM
  TGI: > 100 µM
SK-OV-3 ovarian
  GI50: 2.91 µM
  TGI: > 100 µM
CCRF-CEM leukemia
  GI50: 2.93 µM
  TGI: > 100 µM
OVCAR-3 ovarian
  GI50: 2.31 µM
  TGI: 5.82 µM
MCF7 breast
  GI50: 2.34 µM
  TGI: > 100 µM
SR leukemia
  GI50: 2.03 µM
  TGI: > 100 µM
HCC-2998 colon
  GI50: 8.92 µM
  TGI: > 100 µM
SK-MEL-2 melanoma
  GI50: 4.54 µM
  TGI: > 100 µM

## C=CCc1ccc(O)c(-c2ccc(O)c(CC=C)c2)c1
MALME-3M melanoma
  GI50: 17.1 µM
  TGI: 34.9 µM
M14 melanoma
  GI50: 21.4 µM
  TGI: 48.4 µM
UACC-257 melanoma
  GI50: 17.1 µM
  TGI: 40.6 µM
SK-OV-3 ovarian
  GI50: 22.1 µM
  TGI: 50.1 µM
CCRF-CEM leukemia
  GI50: 13.1 µM
  TGI: > 100 µM
OVCAR-3 ovarian
  GI50: 14.5 µM
  TGI: 30.6 µM
MCF7 breast
  GI50: 8.06 µM
  TGI: 26.2 µM
SR leukemia
  GI50: 14.8 µM
  TGI: > 100 µM
HCC-2998 colon
  GI50: 18.4 µM
  TGI: 36.5 µM
SK-MEL-2 melanoma
  GI50: 14.5 µM
  TGI: 33 µM

## BrCc1cccc(C[P+](c2ccccc2)(c2ccccc2)c2ccccc2)c1
MALME-3M melanoma
  GI50: 82.8 µM
  TGI: > 100 µM
UACC-257 melanoma
  GI50: 5.49 µM
  TGI: > 100 µM
SK-OV-3 ovarian
  GI50: 70.1 µM
  TGI: > 100 µM
CCRF-CEM leukemia
  GI50: 13.3 µM
  TGI: > 100 µM
OVCAR-3 ovarian
  GI50: 10.8 µM
  TGI: > 100 µM
MCF7 breast
  GI50: 13.4 µM
  TGI: > 100 µM
SR leukemia
  GI50: 25.8 µM
  TGI: > 100 µM
HCC-2998 colon
  GI50: 21.8 µM
  TGI: > 100 µM
SK-MEL-2 melanoma
  GI50: 27.9 µM
  TGI: > 100 µM

## CC1CCN(C(=O)OCc2nc3nc(Cl)nc(N4CCOCC4)c3[nH]2)CC1
MALME-3M melanoma
  GI50: 1.5 µM
  TGI: 2.86 µM
UACC-257 melanoma
  GI50: 1.73 µM
  TGI: 3.76 µM
SK-OV-3 ovarian
  GI50: 7.35 µM
  TGI: 21 µM
CCRF-CEM leukemia
  GI50: 0.29 µM
  TGI: 0.964 µM
OVCAR-3 ovarian
  GI50: 0.438 µM
  TGI: 1.71 µM
MCF7 breast
  GI50: 0.65 µM
  TGI: 2.38 µM
SR leukemia
  GI50: 0.331 µM
  TGI: 3.31 µM
HCC-2998 colon
  GI50: 1.69 µM
  TGI: 3.29 µM
SK-MEL-2 melanoma
  GI50: 1.86 µM
  TGI: 3.77 µM

## O=C1c2cccc3cccc(c23)C(=O)N1CCCCCN1CCN(CCCCCOc2ccc(-c3nc4ccc(N5CCOCC5)cc4[nH]3)cc2)CC1
MALME-3M melanoma
  GI50: 17.7 µM
  TGI: 40 µM
UACC-257 melanoma
  GI50: 2.15 µM
  TGI: 3.76 µM
SK-OV-3 ovarian
  GI50: > 100 µM
  TGI: > 100 µM
CCRF-CEM leukemia
  GI50: 1.31 µM
  TGI: 8.97 µM
OVCAR-3 ovarian
  GI50: 6.07 µM
  TGI: 11.2 µM
MCF7 breast
  GI50: 2.49 µM
  TGI: 8 µM
SR leukemia
  GI50: 1.18 µM
  TGI: 3.2 µM
HCC-2998 colon
  GI50: 36.5 µM
  TGI: > 91 µM
SK-MEL-2 melanoma
  GI50: 10.7 µM
  TGI: 32.8 µM

## C[C@@]12CCC[C@@](C)(C(=O)O)C1CC[C@]13CC(=O)[C@](CO)(C1)[C@@H](O)CC32 (stereo partly drawn)
MALME-3M melanoma
  GI50: > 100 µM
  TGI: > 100 µM
M14 melanoma
  GI50: > 100 µM
  TGI: > 100 µM
UACC-257 melanoma
  GI50: > 100 µM
  TGI: > 100 µM
SK-OV-3 ovarian
  GI50: > 100 µM
  TGI: > 100 µM
OVCAR-3 ovarian
  GI50: > 100 µM
  TGI: > 100 µM
MCF7 breast
  GI50: > 100 µM
  TGI: > 100 µM
SR leukemia
  GI50: > 100 µM
  TGI: > 100 µM
HCC-2998 colon
  GI50: > 100 µM
  TGI: > 100 µM
SK-MEL-2 melanoma
  GI50: > 100 µM
  TGI: > 100 µM

## C#Cc1nc(Nc2cc(C)[nH]n2)c2ccccc2n1
MALME-3M melanoma
  GI50: 0.295 µM
  TGI: 0.915 µM
M14 melanoma
  GI50: 0.232 µM
  TGI: 0.559 µM
UACC-257 melanoma
  GI50: 0.2 µM
  TGI: 0.631 µM
SK-OV-3 ovarian
  GI50: 3.19 µM
  TGI: > 100 µM
CCRF-CEM leukemia
  GI50: 0.248 µM
  TGI: 1.31 µM
OVCAR-3 ovarian
  GI50: 0.242 µM
  TGI: 0.52 µM
MCF7 breast
  GI50: 0.197 µM
  TGI: 1.67 µM
SR leukemia
  GI50: 0.226 µM
  TGI: 0.79 µM
HCC-2998 colon
  GI50: 0.216 µM
  TGI: 0.466 µM

## O=C(NNc1ccccc1)C(=O)NNc1ccccc1
MALME-3M melanoma
  GI50: > 100 µM
  TGI: > 100 µM
UACC-257 melanoma
  GI50: > 100 µM
  TGI: > 100 µM
SK-OV-3 ovarian
  GI50: > 100 µM
  TGI: > 100 µM
CCRF-CEM leukemia
  GI50: 0.637 µM
  TGI: > 100 µM
OVCAR-3 ovarian
  GI50: 17.7 µM
  TGI: > 100 µM
MCF7 breast
  GI50: 5.67 µM
  TGI: > 100 µM
SR leukemia
  GI50: 0.919 µM
  TGI: > 100 µM
HCC-2998 colon
  GI50: 2.96 µM
  TGI: > 100 µM
SK-MEL-2 melanoma
  GI50: 2.63 µM
  TGI: > 100 µM

## COC(=O)c1ccc2c(c1)/C(=C\c1cc(Br)c(O)c(Br)c1)C(=O)N2
MALME-3M melanoma
  GI50: 2.08 µM
  TGI: 13.8 µM
M14 melanoma
  GI50: 1.88 µM
  TGI: 9.23 µM
UACC-257 melanoma
  GI50: 4.24 µM
  TGI: 15.5 µM
SK-OV-3 ovarian
  GI50: 6.57 µM
  TGI: > 25 µM
CCRF-CEM leukemia
  GI50: 5.98 µM
  TGI: > 25 µM
OVCAR-3 ovarian
  GI50: 8.14 µM
  TGI: > 25 µM
MCF7 breast
  GI50: 8.01 µM
  TGI: > 25 µM
SR leukemia
  GI50: 8.11 µM
  TGI: > 25 µM
HCC-2998 colon
  GI50: 8.23 µM
  TGI: > 25 µM

## O=c1[nH]c2ccc(O)cc2o1
MALME-3M melanoma
  TGI: > 100 µM
M14 melanoma
  TGI: > 100 µM
UACC-257 melanoma
  TGI: > 100 µM
SK-OV-3 ovarian
  TGI: > 100 µM
CCRF-CEM leukemia
  TGI: > 100 µM
OVCAR-3 ovarian
  TGI: > 100 µM
MCF7 breast
  TGI: > 100 µM
SR leukemia
  TGI: > 100 µM
HCC-2998 colon
  TGI: > 100 µM
